Experimental data reported in the supplement of paper PMC9013687.
± gives the standard deviation of the averaged measurements.

Legend:
[1] = system: Danio rerio embryo; test: EC50 Curvature_Increase; details: exposure time: 2 dpf
Protocol: (§1)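 Zebrafish embryos (UFZ-OBI strain) were exposed from 2 hpf for 48 h (2 dpf) or 96 h (4 dpf) at 28 °C; spontaneous tail coiling was scored at 25 hpf. Morphological features from automated image analysis (FishInspector), heart rate and locomotor response were fitted with drc models. Quantal endpoints were dichotomised at 2.5 SD from controls and fitted with a log-logistic model; heart rate, pigmentation and STC were normalised to the replicate control mean. Betamethasone was tested as betamethasone dipropionate, diflorasone as diflorasone diacetate.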

[2] = system: Danio rerio embryo; test: EC20 LMR dark; higher = less potent; details: exposure time: 4 dpf
Protocol: as §1

[3] = system: Danio rerio embryo; test: EC10 Eye-jaw distance_Decrease; higher = less potent; details: exposure time: 4 dpf
Protocol: as §1

[4] = system: Danio rerio embryo; test: EC20 Eye-jaw distance_Decrease; higher = less potent; details: exposure time: 4 dpf
Protocol: as §1

[5] = system: Danio rerio embryo; details: exposure time: 4 dpf
Protocol: as §1

[6] = system: Danio rerio embryo; test: EC10 Otolith-eye distance_Decrease; higher = less potent; details: exposure time: 4 dpf
Protocol: as §1

[7] = system: Danio rerio embryo
Protocol: as §1

[8] = system: Danio rerio embryo; test: EC20 Body length_Decrease; higher = less potent
Protocol: as §1

[9] = system: Danio rerio embryo; test: EC20 Bladder size_Decrease; higher = less potent; details: exposure time: 4 dpf
Protocol: as §1

[10] = system: Danio rerio embryo; test: EC50 Eye size_Decrease
Protocol: as §1

[11] = system: Danio rerio embryo; test: EC10 Bladder size_Decrease; higher = less potent; details: exposure time: 4 dpf
Protocol: as §1

[12] = system: Danio rerio embryo; test: EC20 Curvature_Increase; higher = less potent; details: exposure time: 2 dpf
Protocol: as §1

[13] = system: Danio rerio embryo; test: EC50 Eye-jaw distance_Decrease; details: exposure time: 4 dpf
Protocol: as §1

[14] = system: Danio rerio embryo; test: EC10 LMR dark; higher = less potent; details: exposure time: 4 dpf
Protocol: as §1

[15] = system: Danio rerio embryo; test: EC50 Otolith-eye distance_Decrease; details: exposure time: 4 dpf
Protocol: as §1

[16] = system: Danio rerio embryo; test: EC10 Curvature_Increase; higher = less potent; details: exposure time: 2 dpf
Protocol: as §1

[17] = system: Danio rerio embryo; test: EC50 Yolk sac size_Increase; details: exposure time: 4 dpf
Protocol: as §1

[18] = system: Danio rerio embryo; test: EC20 Otolith-eye distance_Decrease; higher = less potent; details: exposure time: 4 dpf
Protocol: as §1

[19] = system: Danio rerio embryo; test: EC20 Pericard size_Increase; higher = less potent
Protocol: as §1

[20] = system: Danio rerio embryo; test: EC50 Bladder size_Decrease; details: exposure time: 4 dpf
Protocol: as §1

[21] = system: Danio rerio embryo; test: EC10 Body length_Decrease; higher = less potent
Protocol: as §1

[22] = system: Danio rerio embryo; test: EC20 Any effect; higher = less potent
Protocol: as §1

[23] = system: Danio rerio embryo; test: EC50 Pericard size_Increase
Protocol: as §1

[24] = system: Danio rerio embryo; test: EC10 Pericard size_Increase; higher = less potent
Protocol: as §1

[25] = system: Danio rerio embryo; test: EC10 Yolk sac size_Increase; higher = less potent; details: exposure time: 4 dpf
Protocol: as §1

[26] = system: Danio rerio embryo; test: EC50 Body length_Decrease
Protocol: as §1

[27] = system: Danio rerio embryo; test: EC20 Yolk sac size_Increase; higher = less potent; details: exposure time: 4 dpf
Protocol: as §1

[28] = system: Danio rerio embryo; test: EC50 Head trunk angle_Decrease; details: exposure time: 2 dpf
Protocol: as §1

[29] = system: Danio rerio embryo; test: spontaneous tail coiling frequency (coils/min/embryo); higher = more spontaneous movement; details: 25 hpf
Protocol: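 Spontaneous tail coilings of zebrafish embryos exposed from 2 hpf were recorded at 24-25 hpf in 1-min videos and detected by a KNIME workflow from grey-value variance. Betamethasone was tested as the dipropionate, diflorasone as the diacetate.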

[30] = system: Danio rerio embryo; test: EC10 Any effect; higher = less potent
Protocol: as §1

CCCCOC(=O)[C@@H](C)Oc1ccc(Oc2ccc(C(F)(F)F)cn2)cc1 [fluazifop-p-butyl]
Details | EC10 Bladder size Decrease [µM] | EC10 Curvature Increase [µM] | EC10 Eye-jaw distance Decrease [µM] | EC10 LMR dark [µM] | EC10 Otolith-eye distance Decrease [µM] | EC10 Yolk sac size Increase [µM] | EC20 Bladder size Decrease [µM] | EC20 Curvature Increase [µM] | EC20 Eye-jaw distance Decrease [µM] | EC20 LMR dark [µM] | EC20 Otolith-eye distance Decrease [µM] | EC20 Yolk sac size Increase [µM] | EC50 Bladder size Decrease [µM] | EC50 Curvature Increase [µM] | EC50 Eye-jaw distance Decrease [µM] | EC50 Head trunk angle Decrease [µM] | EC50 LMR dark [µM] | EC50 Otolith-eye distance Decrease [µM] | EC50 Yolk sac size Increase [µM]
[1] | – | – | – | – | – | – | – | – | – | – | – | – | – | 6.37 | – | – | – | – | –
[2] | – | – | – | – | – | – | – | – | – | 0.767 | – | – | – | – | – | – | – | – | –
[3] | – | – | 0.645 | – | – | – | – | – | – | – | – | – | – | – | – | – | – | – | –
[4] | – | – | – | – | – | – | – | – | 1.04 | – | – | – | – | – | – | – | – | – | –
[5] | – | – | – | – | – | – | – | – | – | – | – | – | – | – | – | – | 2.38 | – | –
[6] | – | – | – | – | 0.629 | – | – | – | – | – | – | – | – | – | – | – | – | – | –
[9] | – | – | – | – | – | – | 0.994 | – | – | – | – | – | – | – | – | – | – | – | –
[11] | 0.78 | – | – | – | – | – | – | – | – | – | – | – | – | – | – | – | – | – | –
[12] | – | – | – | – | – | – | – | 3.34 | – | – | – | – | – | – | – | – | – | – | –
[13] | – | – | – | – | – | – | – | – | – | – | – | – | – | – | 2.36 | – | – | – | –
[14] | – | – | – | 0.362 | – | – | – | – | – | – | – | – | – | – | – | – | – | – | –
[15] | – | – | – | – | – | – | – | – | – | – | – | – | – | – | – | – | – | 2 | –
[16] | – | 2.28 | – | – | – | – | – | – | – | – | – | – | – | – | – | – | – | – | –
[17] | – | – | – | – | – | – | – | – | – | – | – | – | – | – | – | – | – | – | 3.42
[18] | – | – | – | – | – | – | – | – | – | – | 0.964 | – | – | – | – | – | – | – | –
[20] | – | – | – | – | – | – | – | – | – | – | – | – | 1.51 | – | – | – | – | – | –
[25] | – | – | – | – | – | 2.23 | – | – | – | – | – | – | – | – | – | – | – | – | –
[27] | – | – | – | – | – | – | – | – | – | – | – | 2.62 | – | – | – | – | – | – | –
[28] | – | – | – | – | – | – | – | – | – | – | – | – | – | – | – | 15.5 | – | – | –

Details | EC10 Any effect [µM] | EC10 Body length Decrease [µM] | EC10 Pericard size Increase [µM] | EC20 Any effect [µM] | EC20 Body length Decrease [µM] | EC20 Pericard size Increase [µM] | EC50 Any effect [µM] | EC50 Body length Decrease [µM] | EC50 Eye size Decrease [µM] | EC50 Otolith [µM] | EC50 Pericard size Increase [µM] | spontaneous tail coiling frequency
[7], exposure time: 2 dpf | – | – | – | – | – | – | 3.1 | – | – | 9.45 | – | –
[7], exposure time: 4 dpf | – | – | – | – | – | – | 1.54 | – | – | – | – | –
[8], exposure time: 2 dpf | – | – | – | – | 1.71 | – | – | – | – | – | – | –
[8], exposure time: 4 dpf | – | – | – | – | 1.15 | – | – | – | – | – | – | –
[10], exposure time: 2 dpf | – | – | – | – | – | – | – | – | 3.96 | – | – | –
[10], exposure time: 4 dpf | – | – | – | – | – | – | – | – | 1.85 | – | – | –
[19], exposure time: 2 dpf | – | – | – | – | – | 2.94 | – | – | – | – | – | –
[19], exposure time: 4 dpf | – | – | – | – | – | 0.834 | – | – | – | – | – | –
[21], exposure time: 2 dpf | – | 1.09 | – | – | – | – | – | – | – | – | – | –
[21], exposure time: 4 dpf | – | 0.702 | – | – | – | – | – | – | – | – | – | –
[22], exposure time: 2 dpf | – | – | – | 0.942 | – | – | – | – | – | – | – | –
[22], exposure time: 4 dpf | – | – | – | 0.624 | – | – | – | – | – | – | – | –
[23], exposure time: 2 dpf | – | – | – | – | – | – | – | – | – | – | 6.56 | –
[23], exposure time: 4 dpf | – | – | – | – | – | – | – | – | – | – | 2.11 | –
[24], exposure time: 2 dpf | – | – | 1.84 | – | – | – | – | – | – | – | – | –
[24], exposure time: 4 dpf | – | – | 0.485 | – | – | – | – | – | – | – | – | –
[26], exposure time: 2 dpf | – | – | – | – | – | – | – | 3.7 | – | – | – | –
[26], exposure time: 4 dpf | – | – | – | – | – | – | – | 2.67 | – | – | – | –
[29], 1.29 µM | – | – | – | – | – | – | – | – | – | – | – | 1.94
[29], 1.93 µM | – | – | – | – | – | – | – | – | – | – | – | 1.98 ± 0.98
[29], 2.9 µM | – | – | – | – | – | – | – | – | – | – | – | 2.62 ± 0.97
[29], 4.35 µM | – | – | – | – | – | – | – | – | – | – | – | 1.95 ± 0.76
[29], 5.2 µM | – | – | – | – | – | – | – | – | – | – | – | 0.71
[29], 6.52 µM | – | – | – | – | – | – | – | – | – | – | – | 1.41 ± 0.83
[29], 9.78 µM | – | – | – | – | – | – | – | – | – | – | – | 1.62 ± 0.014
[30], exposure time: 2 dpf | 0.469 | – | – | – | – | – | – | – | – | – | – | –
[30], exposure time: 4 dpf | 0.368 | – | – | – | – | – | – | – | – | – | – | –
